Laboratory results: patent US12285408B2, “Methods and compositions for the treatment of snake bite” (priority 2021, dated 2025)

Experiments:
[1] = Water solubility when preparing stocks; assay type: physicochemical
[2] = system: procoagulant and anticoagulant toxins fractionated from D. russelii venom; assay: Nanofractionation of D. russelii venom with plasma coagulation assay; assay type: biochemical, Daboia russelii; settings: inhibitor 20 μM to 0.0064 μM
Procedure: FIG. 12. […] The data is plotted separately for ‘very fast coagulation’, ‘medium coagulation’ and ‘anticoagulation’, based on the slopes of the 0-5 min and 0-20 min readings, and the single endpoint reading at 180 min. The tested inhibitor concentrations are presented alongside the chromatograms. […] The data is presented as the maximal clotting velocity at each concentration, and represents means of triplicate independent repeats with SEMs, where each technical repeat represents the mean of n≥2 technical replicates. The venom-only control (top dashed lines) and the negative control (bottom dashed lines) are presented as intervals and represent the average±SEM observed for the venom-only and PBS controls across all datasets and replicates.
Fifty microlitres of venom solution (D. russelii; 1 mg/ml) was injected into a Shimadzu LC-2010 system with nanofractionation in parallel. Separation was performed on a Waters XBridge reversed-phase C18 column (250×4.6 mm column with 3.5 μm pore-size) at 30° C. The total flow rate of the mobile phase solution was 0.5 ml/min with eluent A (98% H2O, 2% acetonitrile [ACN], 0.1% formic acid [FA]) and eluent B (98% ACN, 2% H2O, 0.1% FA). Liquid chromatography gradients consisted of a linear increase of mobile phase B from 0 to 50% in 20 min, followed by a linear increase to 90% B in 4 min, then isocratic at 90% B for 5 min, after which the percentage of mobile phase B was decreased from 90% to 0% in 1 min, followed by 10 min at 0% B to re-equilibrate. The effluent was split in a 1:9 ratio of which the 10% fraction was sent to a Shimadzu SPD-M20A prominence diode array detector and the 90% fraction was directed to a nanofractionation collector which dispensed the fractions into transparent 384-well plates (F-bottom, rounded square well, polystyrene, without lid, clear, non-sterile; Greiner Bio One, Alphen aan den Rijn, The Netherlands) at a resolution of 6 s/well. […]
The final assay concentrations of the inhibitors tested in the assay were 20 μM, 4 μM, 0.8 μM, 0.16 μM, 0.032 μM and 0.0064 μM. […] The plate was then read immediately for absorbance kinetically for 100 min at 595 nm at 25° C. using a Varioskan™ Flash Multimode Reader (Thermo Fisher Scientific, Ermelo, The Netherlands). The obtained results were normalized by dividing the slope measured in each well by the median of all slope values across the plate, and the processed coagulation chromatograms were plotted to visualize very fast coagulation, medium increased coagulation and anticoagulation, as previously described^37.

[3] = cited from earlier work
[4] = system: Echis ocellatus venom metalloproteinase activity; assay: In vitro snake venom metalloproteinase assay (quenched fluorogenic substrate), drug screen; assay type: biochemical; settings: 10 μM drug, control drug
Procedure: FIG. 1. Inhibition of Echis ocellatus venom metalloproteinase activity by known matrix metalloproteinase inhibitors (MMPi) and rationally selected drugs based on their target site interactions. One microgram of whole venom per reaction was incubated with 10 μM of drug (dissolved in DMSO). Predicted metalloproteinase inhibitors were based on descriptors from a MedChemExpress commercial library and the literature. […] The percentage metalloproteinase activity was calculated from an endpoint read taken 45 minutes after substrate addition. The phospholipase inhibitor varespladib was included as a non-metalloproteinase inhibiting drug control.
The snake venom metalloproteinase activity in the presence of inhibitors or vehicle control (DMSO), was measured using a quenched fluorogenic substrate (ES010, R&D Biosystems). […] The substrate was suspended in reaction buffer (150 mM NaCl, 50 mM Tris-HCl pH 7.5). Reactions consisted of 1 μg/reaction of venom (1 μg in 15 μl PBS) co-incubated with 0.91 μl of 1 mM of inhibitor, both added using the VIAFLO 384 (Integra). […] Strong hits were determined as those with less than 20% metalloproteinase activity of the venom and mediocre hits between 20 and 50%. […]

[5] = system: Echis ocellatus venom; settings: previous work, same preclinical model; cited from earlier work
[6] = Tolerability of oral DMPS; assay type: in vivo

Row | Compound | water solubility [1] | inhibition of anticoagulant fractions of D. russelii venom [2] | inhibition of procoagulant fractions of D. russelii venom [2] | tolerability ([3]; Phase 1 and 2) | risk of major adverse cardiovascular events ([3]; Phase 2B, same daily dose, >300 patients for >6 months) | risk of myocardial infarction ([3]; Phase 3, acute coronary syndrome patients, 500 mg oral daily) | inhibitory effect against venom metalloproteinase activity [4] | side effects ([3]; single doses of up to 800 mg, bidaily 200 mg for 6.5 days, or 75 mg daily for 28 days) | time for which lethality was prevented [5] [h] | oral dose that is well tolerated and safe [6]
1 | CCc1c(C(=O)C(N)=O)c2c(OCC(=O)O)cccc2n1Cc1ccccc1 [varespladib] | water insolubility | effectively inhibited the anticoagulant activity | some inhibitory effect against procoagulant venom toxins, but only at very high doses (20 μM) | well tolerated | no greater risk of major adverse cardiovascular events | greater risk of myocardial infarction than those receiving placebo | no inhibitory effect |  |  | 
2 | CNC(=O)[C@@H](NC(=O)[C@H](CC(C)C)[C@H](O)C(=O)NO)C(C)(C)C [marimastat] |  | not neutralized by this inhibitor at any of the tested concentrations | effectively inhibited in a dose-dependent manner |  |  |  |  | no notable side effects |  | 
3 | O=S(=O)(O)CC(S)CS (stereo not drawn) [DMPS, 2,3-dimercapto-1-propanesulfonic acid] |  |  |  |  |  |  |  |  | ~8 | up to 1,500 mg
